Data set [1] deals with T1, CgAKR-1 (Coptotermes gestroi, UniProt A0A140CVV2).
T1 construct: full-length ORF of 334 residues, N-terminal 6xHis tag (pET-28a, NheI/BamHI), E. coli ArcticExpress (DE3); Ni and size exclusion purified
T1 sequence (A0A140CVV2 1-334): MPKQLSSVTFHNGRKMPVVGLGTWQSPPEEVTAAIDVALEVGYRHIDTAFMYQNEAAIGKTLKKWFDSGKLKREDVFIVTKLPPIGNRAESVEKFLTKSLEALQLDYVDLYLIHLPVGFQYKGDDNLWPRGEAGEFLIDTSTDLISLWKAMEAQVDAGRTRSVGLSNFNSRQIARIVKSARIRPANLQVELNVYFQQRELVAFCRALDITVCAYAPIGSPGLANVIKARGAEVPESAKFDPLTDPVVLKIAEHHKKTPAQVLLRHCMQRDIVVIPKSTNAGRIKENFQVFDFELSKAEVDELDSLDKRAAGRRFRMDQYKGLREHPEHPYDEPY
Kind of data set: NADPH oxidation at […] nm, varied NADPH. As to conditions: 5 mM 2-nitrobenzaldehyde; 50 mM sodium phosphate pH 7.0 (standard assay), 30 °C; Kd apparently from kinetics. Format: biochemical.

In data set [2] the target is T1, CgAKR-1. The data set can be described thus: X-ray crystal structure. As to conditions: cofactor-binding site; complex described in text, ligand state not stated explicitly.
Substrate in data set [3]: O=Cc1ccccc1[N+](=O)[O-]
Kind of data set: purified protein. The format is biochemical, Coptotermes gestroi. The note with it: 0.2 mM NADPH, 50 mM sodium phosphate pH 7.0 (standard assay), 30 °C.

By Km is commonly meant the substrate concentration at which the rate is half of its maximum. What is called kcat is the maximal rate divided by the concentration of active sites.

As for `NC(=O)C1=CN([C@@H]2O[C@H](COP(=O)(O)OP(=O)(O)OC[C@H]3O[C@@H](n4cnc5c(N)ncnc54)[C@H](OP(=O)(O)O)[C@@H]3O)[C@@H](O)[C@H]2O)C=CC1` [NADPH], in data set [1], the Kd stood at 60 µM. As to `NC(=O)c1ccc[n+]([C@@H]2O[C@H](COP(=O)(O)OP(=O)(O)OC[C@H]3O[C@@H](n4cnc5c(N)ncnc54)[C@H](OP(=O)(O)O)[C@@H]3O)[C@@H](O)[C@H]2O)c1` [NADP], the X-ray crystal structure entry in data set [2] is “the pocket was mainly delimited by the cofactor (NADP) and nine amino acids”.

B1: CgAKR-1 (Coptotermes gestroi) (protein)
chain: T1 sequence (A0A140CVV2 1-334)
notes: full-length ORF of 334 residues, N-terminal 6xHis tag (pET-28a, NheI/BamHI), E. coli ArcticExpress (DE3); Ni and size exclusion purified
In the case of B1, in data set [3], the Km came to 150 µM and the catalytic constant (kcat) turned out to be 7.5 s⁻¹.

The values are drawn from article PMC5209882, “The Coptotermes gestroi aldo–keto reductase: a multipurpose enzyme for biorefinery applications” (Biotechnology for Biofuels, 2017).
